Data published in patent publication EP4806435A1, “DIHYDROCHROMENE-DERIVATIVE-CONTAINING THERAPEUTIC AGENT FOR CANCER” (Sumitomo Pharma Co., Ltd., priority 2023, dated 2025).

Key:
U-87 cells = experiment: Cytotoxicity assay of metabolites under sphere culture conditions (ATP); type: cell-based; details: Homo sapiens, U-87 MG, 168 h, 7 days in sphere medium, read-out: IC50 (cytotoxicity, cell viability by ATP)
Protocol: U-87 cells were cultured for 7 days in sphere medium in the presence of metabolites M2, M4, and M5, respectively. After culture, cellular ATP levels were quantified as an indicator of cell viability, and cell viability was calculated in the same manner as in Example 12 to compare cytotoxicity.

[1] = test system: U-87 cells (IDH1 wild-type); experiment: Cytotoxicity, sphere culture with LDL, combination with ezetimibe (ATP); type: cell-based, human; details: ezetimibe at 3.3, 10, or 30 µM; 7 days; LDL 5 µg/mL
Protocol: U-87 cells were cultured for 7 days in sphere medium supplemented with LDL at a concentration of 5 µg/mL, with either ezetimibe (a cholesterol absorption inhibitor) added at 3.3, 10, or 30 µM, Compound 1 added at 1 µM, or a combination of both agents. Cell viability was calculated in the same manner as in Example 12, and the cytotoxic effects of each treatment were compared between single-agent and combination conditions.

mouse = experiment: 4-week mouse toxicity study (GLP); type: in vivo
Protocol: (§1) The initial starting dose of 20 mg/day (expressed as the present compound) was determined in accordance with the ICH S9 guideline of International Council for Harmonisation of Technical Requirements for Pharmaceuticals for Human Use (ICH). Based on a 4-week mouse toxicity study conducted in compliance with Good Laboratory Practice (GLP), the dose causing severe toxicity in 10% of the test animals (STD10) was determined to be 50 mg/kg. Applying a safety factor of 10 and interspecies scaling, the starting dose for this first-in-human (FIH) study was calculated to be 0.4 mg/kg, corresponding to a fixed dose of 24 mg for a 60-kg human. In a 4-week non-human primate toxicity study conducted in compliance with Good Laboratory Practice (GLP), the highest non-severely toxic dose (HNSTD) was determined to be 7.5 mg/kg. Applying a safety factor of 6 and interspecies scaling, the starting dose in humans was estimated to be 0.4 mg/kg, corresponding to a fixed dose of 24 mg. The final recommended starting dose for the first-in-human (FIH) study was rounded to 20 mg/day.

non-human primate = experiment: 4-week non-human primate toxicity study (GLP); type: in vivo
Protocol: as §1

U-87 GBM xenografts = experiment: Tumor shrinkage in mice bearing U-87 GBM xenografts; type: in vivo

Compound: CC1(C)Oc2cc(Cl)ccc2[C@@H]2OCC3(CCN(CCNC(=O)CNC=O)CC3)C[C@H]21 [Compound M2, N-2-[(4'aR,10'bR)-8'-chloro-5',5'-dimethyl-4'a,10'b-dihydro-2'H,4'H,5'H-spiro[piperidine-4,3'-pyrano[3,2-c][1]benzopyran]-1-yl]ethyl-N^2-formylglycinamide]
- IC50 (U-87 cells): 3600 nM

Compound: CC1(C)Oc2cc(Cl)ccc2[C@@H]2OCC3(CCNCC3)C[C@H]21 [Compound M4]
- IC50 (U-87 cells): 1600 nM

Compound: CC1(C)Oc2cc(Cl)ccc2[C@@H]2OCC3(CCN(CCO)CC3)C[C@H]21 [Compound M5, 2-[(4'aR,10'bR)-8'-chloro-5',5'-dimethyl-4'a,10'b-dihydro-2'H,4'H,5'H-spiro[piperidine-4,3'-pyrano[3,2-c][1]benzopyran]-1-yl]ethan-1-ol]
- IC50 (U-87 cells): 2100 nM

Compound: O=C1[C@H](CC[C@H](O)c2ccc(F)cc2)[C@@H](c2ccc(O)cc2)N1c1ccc(F)cc1 [ezetimibe, reference compound]
- cytotoxicity, single agent [1]: low cytotoxicity

Compound: CC1(C)Oc2cc(Cl)ccc2[C@@H]2OCC3(CCN(CCn4ccnc4)CC3)C[C@H]21 [the present compound, (4'aR,10'bR)-8'-chloro-1-[2-(1H-imidazol-1-yl)ethyl]-5',5'-dimethyl-4'a,10'b-dihydro-2'H,4'H,5'H-spiro[piperidine-4,3'-pyrano[3,2-c][1]benzopyran]]
- dose causing severe toxicity in 10% of the test animals (STD10) (mouse): 50 mg/kg
- highest non-severely toxic dose (HNSTD) (non-human primate): 7.5 mg/kg
- minimum pharmacologically active dose in humans (human equivalent dose, HED) (U-87 GBM xenografts; HED of 3 mg/kg in mice bearing U-87 GBM xenografts): 15 mg
- dose at which a consistent tumor shrinkage effect was observed (U-87 GBM xenografts; mice bearing U-87 GBM xenografts): 3 mg/kg
